Assay results from patent EP1092438B1, “Pharmaceutical compositions containing growth-hormone inhibitors or their biologically active fragments for the treatment of uterine myomas” (De Leo, Vincenzo, priority 1999, dated 2006).

Experiment: Routine blood parameters before and after treatment
Assay type: in vivo
Settings: person
From the text: TABLE 1 Example 1 (patient)

In the case of CC(C)[C@@H]1NC(=O)[C@H](CCCCN)NC(=O)[C@@H](Cc2c[nH]c3ccccc23)NC(=O)[C@H](Cc2ccc(O)cc2)NC(=O)[C@@H](NC(=O)[C@H](N)Cc2ccc3ccccc3c2)CSSC[C@@H](C(=O)N[C@H](C(N)=O)[C@@H](C)O)NC1=O [Lanreotide], the routine blood parameters is reported as “remained unvaried”.
